Data: PubChem BioAssay AID463229 (Broad Institute, 2010)
Activity calls are given as the source filed them.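 The calls were made as follows: active = compounds raising the signal whose fitted half-maximal concentration is at or below their top tested dose (cut at about 25 µM in these data); inconclusive = flat fit at 30 to 70% activity, or a poor fit; inactive = the rest.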

These molecules were tested on INS-1E rat beta cells, no cytokines, CellTiter-Glo ATP, 48 h (assay: cytokine-free beta-cell viability effect – INS-1E rat cells, ATP luminescence, cherry pick, counter-screen for beta-cell apoptosis protection project, dose response (AID 463229)).

SMILES	AC50
COc1cc2c(cc1OC)[C@@H]1C(=O)c3ccc4c(c3O[C@@H]1CO2)C[C@H](C(C)C)O4	< 0.195 µM
Cc1cc(/C=N/n2c(COc3ccccc3C)nc3ccccc3c2=O)c(O)c([N+](=O)[O-])c1	8.92 µM
COc1cc(/C=C/C(=O)c2ccc([N+](=O)[O-])o2)ccc1O	3.91 µM
Cc1ccccc1Oc1cc(-n2ncc(Cl)c(Cl)c2=O)ncn1	3.98 µM
O=[N+]([O-])c1ccc(NC(=S)NCCc2ccc(F)cc2)cc1	7.46 µM
COC(=O)C1CCN(C(=O)c2cc(-c3ccc(Cl)s3)nc3ccccc23)CC1	3.24 µM
CCn1c(-c2ccc(N(C)C)cc2)nc2ccccc21	3.75 µM
CCC(C)Nc1nc(-c2ccccn2)nc2ccccc12 (stereo not drawn)	9.01 µM
NC(=O)c1ccc(N2CCN(S(=O)(=O)c3cccs3)CC2)c([N+](=O)[O-])c1	6.36 µM
O=S1(=O)C=C(Sc2nnc(-c3ccccc3)o2)c2ccccc21	7.96 µM
Cc1c(Cl)c([N+](=O)[O-])nn1Cc1ccc(C(=O)N/N=C\c2cc(Cl)ccc2O)o1	6.95 µM
Cc1ccc2nc(NNC(=O)c3ccc(S(=O)(=O)N4CCc5ccccc5C4)cc3)sc2c1	4.18 µM
Cc1cccc(-n2c(C)cc(/C=N/n3cnnc3)c2C)c1	14.5 µM
COc1cccc(/C=N/Nc2cc(N3CCOCC3)ncn2)c1O	14.2 µM
c1ccc(CSc2ccc(-c3ccccn3)nn2)cc1	18.8 µM
Cc1ccc(/C=C/C(=O)c2ccc([N+](=O)[O-])o2)cc1	7.11 µM
Cc1ccc(NC(=O)Nc2cccc([N+](=O)[O-])c2)cc1F	8.06 µM
Clc1ccc(C(Cn2ccnc2)OCc2csc3c(Cl)cccc23)c(Cl)c1 (stereo not drawn)	14.6 µM
O=c1c2ccccc2nc(COc2ccccc2)n1/N=C/c1ccc(O)cc1O	15.9 µM
O=S(=O)(c1ccc(NC(=S)NCc2cccnc2)cc1)N1CCCCC1	1.62 µM
COc1nnc(-c2ccc(N3CCCCC3)c(NC(=O)C3CCCCC3)c2)c2ccccc12	5.25 µM
CCN(CC)c1ccc(/C=N/NC(=O)c2cccc(S(=O)(=O)N3CCOCC3)c2)c(O)c1	2.12 µM

SMILES	AC50
COc1ccc(OC)c2c1C(=O)C(Cl)=C(Cl)C2=O	8.18 µM
COC(=O)C1=C(C)N(Cc2ccccc2)C(=NCc2cccc(C(F)(F)F)c2)N[C@H]1c1cccc(F)c1	8.07 µM
COc1ccc2nc(Nc3nc(CSc4nc5ccccc5[nH]4)cc(=O)[nH]3)nc(C)c2c1	7.05 µM
Cc1cc(C)c(S(=O)(=O)/N=C2\C=C(Nc3ccc(C(=O)O)cc3)C(=O)c3ccccc32)c(C)c1	5.39 µM
CCn1c(-c2ccc(C)cc2)nn(CC(=O)NCCc2ccccc2)c1=S	7.22 µM
C/C(=N\NC(=O)c1nnn(-c2nonc2N)c1CN1CCc2ccccc21)c1ccccc1O	11.4 µM
CCCCC1(Cc2ccc([N+](=O)[O-])cc2)C(=O)N(c2ccccc2)N(c2ccccc2)C1=O	3.72 µM
O=c1cc(N2CCN(c3cccc(Cl)c3)CC2)[nH]c(=O)n1C1CCCCC1	1.66 µM
O=C(CCC1CCCC1)Nc1ccc(C(=O)NCc2cccnc2)cc1	< 0.195 µM
Cc1cc2c(NCCc3ccccc3)ncnc2s1	2.95 µM
O=C(Nc1cccnc1)c1cccs1	1.86 µM
COc1ccc(C(C)NCCC(c2ccc(OC(C)C)cc2)c2ccccc2OC)cc1 (stereo not drawn)	7.99 µM
CC(C)Nc1ccc(Nc2ccccc2)cc1	7.5 µM
O=C(O)CCCC(=O)Nc1ccc(C(=O)NCc2cccnc2)cc1	4.54 µM
O=C(Nc1ccc(-c2csc(Nc3cccc(C(F)(F)F)c3)n2)cc1)c1cc([N+](=O)[O-])cc(C(F)(F)F)c1	7.63 µM
CSc1nc(-c2ccccc2)nc(C(Cl)Cl)n1	3.88 µM
CC(=O)/C=C/n1c(=S)oc2ccccc21	8.87 µM
N#C/C(N=Nc1ccccc1O)=N\Nc1ccccc1O	4.12 µM
NC1=NC[C@H](Cc2ccccc2)N1CCCCC1CCCCC1	6.91 µM
COc1ccc(Cn2c(SCc3ccc(C)cc3)nc3cc(OC)c(OC)cc3c2=N)cc1Cl	6.89 µM
CCOc1cc(/C=N/Nc2cc(C)nc(-n3nc(C)cc3C)n2)ccc1O	5.78 µM
O=C(Cc1ccccc1)N/N=C/c1ccc([N+](=O)[O-])s1	7.26 µM

SMILES	AC50
CCN(CC)c1ccc2nc3ccccc3[n+](CC)c2c1	3.19 µM
COc1ccc2c(c1)C(=O)[C@H](O)[C@@H](c1ccc(OC)c(Br)c1)O2	7.97 µM
Cc1ncc(CO)c(/C=N/NC(=O)c2cc3c(s2)CCCC3)c1O	5.92 µM
CCC(C)(C)c1ccc(OCCCC[n+]2cccc(C)c2C)c(C(C)(C)CC)c1	0.804 µM
CCCCCCCCn1ccc(=N)cc1	0.65 µM
CN1/C(=C\C(=S)NC(=O)c2ccccc2Cl)C(C)(C)c2ccccc21	7.37 µM
CC(C)(C)n1nnnc1C(c1ccc(F)cc1)N(Cc1ccc(F)cc1)Cc1ccco1 (stereo not drawn)	9.25 µM
COC(=O)c1ccccc1NC(=O)c1nc(S(=O)(=O)Cc2ccccc2)ncc1Cl	7.98 µM
N=c1c2c(ncn1CCCO)Oc1ccc3ccccc3c1C2c1ccccc1 (stereo not drawn)	> 26 µM (inactive)
Cc1ccc(NC(=O)Cc2nn(C)c(=O)c3ccccc23)cc1F	6.97 µM
O=[N+]([O-])c1ccc(/C=N/n2c(CO)nc3ccccc32)s1	10.8 µM
NC(N)=N/N=C/c1cn(-c2ccccc2)nc1-c1cccs1	14.2 µM
C[C@H]1CCC/C=C/C2C[C@H](O)CC2[C@H](O)/C=C/C(=O)O1 (stereo partly drawn)	0.94 µM
O=C(C1=C[C@@H](c2ccc(C(F)(F)F)cc2)C[C@@H](OCCCCO)O1)N1CCN(Cc2ccccc2)CC1	12.6 µM
COc1ccc(CC2(CO)CCN(CC3=Cc4cc(Cl)ccc4OC3)CC2)cc1	4.18 µM
Cc1ccc2cc(C3C(C#N)=C(N)Oc4c3ccc3cccnc43)c(=O)[nH]c2c1 (stereo not drawn)	5.81 µM
CCCCOc1ccc(-c2cc(C(=O)NNC(=S)NCC)c3ccccc3n2)cc1	6.66 µM
O=[N+]([O-])c1cc(C(F)(F)F)ccc1NCCCCNS(=O)(=O)c1ccc(Cl)cc1	6.94 µM
CCOC(=O)c1sc(NC(=O)Nc2cccc(Cl)c2)cc1C	7.53 µM
C=C1C(=O)O[C@@H]2C[C@@H](C)[C@@H]3C4OC4C(=O)[C@@]3(C)[C@@H](O)[C@H]12 (stereo partly drawn)	7.57 µM
Cc1cc(C)n(Cc2ccc(NC(=O)c3ccc(COc4ccccc4Br)cc3)cc2)n1	8.33 µM
Cc1ccc(C)c(N=Nc2ccc(O)c3ncccc23)c1	3.98 µM

SMILES	AC50
Oc1ccc(-[n+]2c(-c3ccccc3)cc(-c3ccccc3)cc2-c2ccccc2)cc1	3.96 µM
CCCc1sc(N/N=C/c2ccccn2)nc1-c1ccc(F)cc1	2.27 µM
COC(=O)C1CCCCN1C(=O)c1cc(COc2cccc3cnccc23)on1 (stereo not drawn)	7.11 µM
CCC(CO)[n+]1c(C)cc(/C=C2\Sc3ccccc3N2Cc2ccccc2)cc1C (stereo not drawn)	0.765 µM
CCc1cc(CNC(=O)c2ccc3nc(Cc4ccc(OC)c(OC)c4)oc3c2)on1	9.39 µM
O=C(N/N=C(\c1ccccc1)c1ccccn1)c1cccc([N+](=O)[O-])c1	2.11 µM
Oc1ccc2ccccc2c1N=Nc1ccccn1	4.14 µM
CC(=O)c1ccc(NC(=S)NC(C)c2ccc(Cl)cc2Cl)cc1 (stereo not drawn)	21.1 µM
O=C(Nc1ccc(Br)c(C(F)(F)F)c1)c1ccc(C(F)(F)F)cc1	7.74 µM
Cc1cc(C(=O)N/N=C/c2cc(Br)ccc2OC(=O)c2ccccc2)n[nH]1	7.44 µM
CC(=O)c1c(C)oc2ccc(N(C(C)=O)S(=O)(=O)c3cccc4cccnc34)cc12	7.79 µM
c1ccc(-c2cc(-c3ccccc3)[n+](-c3ccccc3)c(-c3ccccc3)c2)cc1	2.65 µM
O=C(N/N=C/c1ccccc1O)C1CC(=O)N(c2ccc(Cl)cc2)C1 (stereo not drawn)	17.7 µM
C/C(=N\N1C(=O)c2ccccc2NC1c1ccccc1)c1ccccc1O (stereo not drawn)	19.1 µM
COc1ccc2c(c1)C(=O)[C@@H](O)[C@H](c1ccc(OC)c(Br)c1)O2	10.4 µM
CCCNC(=O)c1ccc2c(=O)c(O)c(-c3cccc(Br)c3)[nH]c2c1	4.63 µM
N#C/C(=C\c1ccc([N+](=O)[O-])o1)c1nc2ccccc2[nH]1	4.09 µM
COc1ccc(/C(C)=N/Nc2nc(C)cc(-c3ccccc3)n2)cc1	9.59 µM
Cc1ccccc1NC1=C/C(=N\S(=O)(=O)c2cccs2)c2ccccc2C1=O	1.79 µM
Cc1sc2ncnc(NC3CCN(Cc4ccccc4)CC3)c2c1C	5.11 µM
O=C(Oc1c(Cl)cc(Cl)c2cccnc12)c1cccs1	15 µM
O=S(=O)(c1ccc2c(c1)OCCO2)N1CCN(c2ncnc3sccc23)CC1	4.9 µM

SMILES	AC50
CCCCCCc1ccc(N2C[C@H](Cc3ccccc3)[C@@H](CC(=O)NCc3ccc(OC)cc3)C2=O)cc1	13.6 µM
Nc1c(C(=O)Nc2ccc(S(=O)(=O)N3CCCC3)cc2)sc2nc3ccc(OC(F)(F)F)cc3cc12	5.29 µM
O=C(NNC(=O)c1ccccc1OCc1ccc(F)cc1)c1ccccc1O	13.6 µM
CN(C)c1cc[n+](CC(=O)Nc2ccc(Oc3ccccc3)cc2)cc1	2.36 µM
Cc1ccc(C)c(NC(=O)c2ccccc2NS(=O)(=O)c2cc([N+](=O)[O-])ccc2C)c1	3.94 µM
CS(=O)(=O)N(CC(=O)Nc1ccc(CC#N)cc1)c1ccc(C23CC4CC(CC(C4)C2)C3)cc1	7.41 µM
O=C(N/N=C/c1ccccc1)c1c(O)c2ccccc2[nH]c1=O	6.58 µM
C=C1C(=O)O[C@@H]2C[C@@H](C)[C@@H]3C=CC(=O)[C@@]3(C)[C@@H](OC(C)=O)[C@H]12	2.21 µM
CCn1c(SCC(=O)Nc2cc(C)on2)nc2sc3c(c2c1=O)CCCC3	16.7 µM
Cc1ccc(-n2c(-c3ccccc3)c[n+]3c2CCc2ccccc2-3)c(C)c1	1.91 µM
CC1CN(S(=O)(=O)c2ccc(C(=O)NCCCn3ccnc3)cc2)CC(C)O1 (stereo not drawn)	1.39 µM
Brc1ccc(-[n+]2c(-c3ccccc3)cc(-c3ccccc3)cc2-c2ccccc2)cc1	2.4 µM
CCc1ccc(S(=O)(=O)/N=C2\C=C(Nc3ccc(C(=O)O)cc3)C(=O)c3ccccc32)cc1	14.7 µM
O=C(Nc1ccc(Cl)cc1)Nc1nnc(CSCc2ccc(Cl)cc2)s1	6.74 µM
COc1cccc(F)c1C(C[N+](=O)[O-])c1c(N)n(C)c(=O)n(C)c1=O (stereo not drawn)	8.3 µM
Cc1nn(C)c(C)c1CN(C)S(=O)(=O)c1ccc2ccccc2c1	3.02 µM
C/C(=N\NC(=O)c1ccc(NS(=O)(=O)c2cccs2)cc1)c1ccccn1	13.3 µM
O=C(NC(=S)NNC(=O)c1cnccn1)c1ccc(F)cc1	3.48 µM
Cc1ccc(-c2c[n+]3c(n2-c2ccccc2)CCC3)cc1	2.02 µM
CC[n+]1ccc(/C=C/c2c[nH]c3ccccc23)cc1	5.85 µM
